Data on 21 compounds can be found in US20230183216A1, “PYRIDIZIN-3(2H)-ONE DERIVATIVES” (Gilead Sciences, Inc., priority 2021, published 2023).

Molecules are shown by their SMILES. pEC50, pIC50: −log10 of the molar value. Some results are limits rather than exact numbers.

Experiment [1] deals with STAT1 (phosphorylated at Tyr701) in NCI-H1373 cells. The experiment can be described thus: Phospho-STAT1 (Tyr701) LANCE Ultra TR-FRET Detection Assay. Format: cell-based. The settings on record: Homo sapiens, 48 hours, induction of pSTAT1, normalized to 10 uM positive control and DMSO, 4-parameter fit, read-out: NH1373 pSTAT1 EC50. Here is the method:
Phospho-STAT1 (Tyr701 LANCE Ultra TR-FRET Detection Assay
LANCE Ultra phospho-STAT1 (Tyr701) kits available from Perkin Elmer are designed for the detection of phosphorylated STAT1 in cell lysates using a simple, homogeneous LANCE Ultra sandwich assay (Cat. #TRF4028M). This assay is intended for assessing compound induction of endogenous levels of cellular STAT1 (phosphorylated at Tyr701) in NCI-H1373 cells. The NCI-H1373 cells are cultured in RPMI 1640 media containing 10% heat inactivated FBS, GlutaMAX, 1% Penicillin-Streptomycin. An Echo acoustic liquid handler is used to transfer 60 nanoliters of compound dilutions using the Echo Qualified, 384-well polypropylene microplate clear flat bottom source plates into a Greiner (#781080) cell culture microplate. NCI-H1373 cells are seeded into these compound-spotted culture plates at 30,000 cells/well in a 60 uL volume in growth media. The plates are incubated in a 5% CO2 humidified incubator at 37° C. for 48 hours. […] Briefly, 20 μL of supplemented lysis buffer is added to each well and allowed to shake for 1 hour at 400 rpm. Next, 5 ul of remixed antibody solutions (vol/vol) prepared in detection buffer are added to each well and allowed to incubate at room temperature overnight. After spinning the plate down at 300 rpm for […], the plate is read on an EnVision plate reader set up for Eu3+ Cryptate and fluorescence emission is measured at two different wavelengths (665 nm and 620 nm).

The target in experiment [2] is T1, PARP7 (Homo sapiens, UniProt Q7Z3E1).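 Note: MSD light signal quantifying PARP7 captured by a plate-immobilized probe, read after 1.5 h equilibration plus 1.5 h with SULFO-TAG anti-GST antibody at room temperature.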
T1 sequence (Q7Z3E1 1-657): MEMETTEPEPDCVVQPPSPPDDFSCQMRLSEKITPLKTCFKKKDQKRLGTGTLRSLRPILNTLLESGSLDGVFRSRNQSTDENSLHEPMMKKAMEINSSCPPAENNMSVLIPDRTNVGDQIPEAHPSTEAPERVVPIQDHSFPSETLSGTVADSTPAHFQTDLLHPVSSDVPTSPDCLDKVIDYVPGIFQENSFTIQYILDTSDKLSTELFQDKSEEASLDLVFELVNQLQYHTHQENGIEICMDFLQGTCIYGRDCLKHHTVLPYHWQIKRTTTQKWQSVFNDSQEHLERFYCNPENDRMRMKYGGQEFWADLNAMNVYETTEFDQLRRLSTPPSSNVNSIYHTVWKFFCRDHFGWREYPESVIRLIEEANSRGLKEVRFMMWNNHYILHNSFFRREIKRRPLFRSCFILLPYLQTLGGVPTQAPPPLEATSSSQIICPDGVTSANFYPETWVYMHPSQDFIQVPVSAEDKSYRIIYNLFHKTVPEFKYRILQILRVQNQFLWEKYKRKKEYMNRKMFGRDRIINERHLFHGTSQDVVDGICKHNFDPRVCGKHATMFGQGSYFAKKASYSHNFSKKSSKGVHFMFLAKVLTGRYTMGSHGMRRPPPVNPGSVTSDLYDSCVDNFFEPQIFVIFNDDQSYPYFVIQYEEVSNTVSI
The experiment can be described thus: biochemical.
Protocol: Probe Displacement Assay for PARP7 Displacement of a biotinylated probe (RBN011147; Wigle et al., Cell Chemical Biology, 2020, pp. 877-887) from the PARP7 NAD+-binding site was measured in vitro using a Mesoscale Discovery electrochemiluminescent assay. […] Next, 10 μl of 10 nM PARP7 protein incubated for 1 hour at room temperature with a dose response curve of each test compound in a Greiner LDV polypropylene plate (#781201) is added to the MSD plate containing the immobilized probe. The interaction is allowed to reach equilibrium for 1.5 hours, and then 10 ul of SULFO-TAG labeled anti-GST antibody (Cat #R32AA-1) is added to each well and allowed to incubate for an additional 1.5 hours at room temperature. Finally, 10 μl of MSD read buffer T (4×, Cat. #R92C-1) is added to each well using a Bravo liquid handler to prevent air bubbles in the wells, and the plates are subsequently read in an MSD instrument. Light intensity is then measured to quantify the amount of PARP7 bound to the immobilized probe on the plate.

As for `O=C(CCCN(c1ccccc1)c1cc(C(F)(F)F)c(=O)[nH]n1)N1CCN(c2ncc(C(F)(F)F)cn2)CC1` [Example 44, 6-((4-oxo-4-(4-(5-(trifluoromethyl)pyrimidin-2-yl)piperazin-1-yl)butyl)(phenyl)amino)-4-(trifluoromethyl)pyridazin-3(2H)-one], the pEC50 in experiment [1] was 7.13. This compound also gave a negative-log IC50 (pIC50) in experiment [2] of 9.82.

As to `O=C(OCCCc1cc(C(F)(F)F)c(=O)[nH]n1)N1CCN(c2ncc(C(F)(F)F)cn2)CC1` [Example 13, 3-(6-oxo-5-(trifluoromethyl)-1,6-dihydropyridazin-3-yl)propyl 4-(5-(trifluoromethyl)pyrimidin-2-yl)piperazine-1-carboxylate], the pEC50 in experiment [1] was 5.93. Also, the pIC50 in experiment [2] was 8.87.

For `O=C(CCNCc1cc(C(F)(F)F)c(=O)[nH]n1)N1CCN(c2ncc(C(F)(F)F)cn2)CC1` [Example 73, 6-(((3-oxo-3-(4-(5-(trifluoromethyl)pyrimidin-2-yl)piperazin-1-yl)propyl)amino)methyl)-4-(trifluoromethyl)pyridazin-3(2H)-one], the pEC50 in experiment [1] is 5.69. The pIC50 in experiment [2] is 8.75.

Take `CCN(CCCC(=O)N1CCN(c2ncc(C(F)(F)F)cn2)CC1)c1cc(C(F)(F)F)c(=O)[nH]n1` [Example 36, 6-(ethyl(4-oxo-4-(4-(5-(trifluoromethyl)pyrimidin-2-yl)piperazin-1-yl)butyl)amino)-4-(trifluoromethyl)pyridazin-3(2H)-one]: in experiment [1], the pEC50 is 7.29. This compound also had a pIC50 in experiment [2] of 9.75.

In the case of `O=C(N1CCN(c2ncc(C(F)(F)F)cn2)CC1)N1CCC[C@H](Nc2cc(C(F)(F)F)c(=O)[nH]n2)C1` [Example 39, (S)-4-(trifluoromethyl)-6-((1-(4-(5-(trifluoromethyl)pyrimidin-2-yl)piperazine-1-carbonyl)piperidin-3-yl)amino)pyridazin-3(2H)-one], the pEC50 in experiment [1] was 5.99. For the same compound, the pIC50 in experiment [2] was 9.14.

With `O=C(CC[C@@H]1COCCN1c1cc(C(F)(F)F)c(=O)[nH]n1)N1CCN(c2ncc(C(F)(F)F)cn2)CC1` [Example 42, (R)-6-(3-(3-oxo-3-(4-(5-(trifluoromethyl)pyrimidin-2-yl)piperazin-1-yl)propyl)morpholino)-4-(trifluoromethyl)pyridazin-3(2H)-one], the pEC50 in experiment [1] was 6.05. For the same compound, the pIC50 in experiment [2] is 9.22.

Take `Cc1cc(CCCCC(=O)N2CCN(c3ncc(C(F)(F)F)cn3)CC2)n[nH]c1=O` [Example 68, 5-methyl-3-[5-oxo-5-[4-[5-(trifluoromethyl)pyrimidin-2-yl]piperazin-1-yl]pentyl]-1H-pyridazin-6-one]: the pEC50 in experiment [1] was 5.88. In experiment [2], this compound had a pIC50 of 8.25.

For `O=C(CC1(CNc2cc(C(F)(F)F)c(=O)[nH]n2)CC1)N1CCN(c2ncc(C(F)(F)F)cn2)CC1` [Example 12, 6-(((1-(2-oxo-2-(4-(5-(trifluoromethyl)pyrimidin-2-yl)piperazin-1-yl)ethyl)cyclopropyl)methyl)amino)-4-(trifluoromethyl)pyridazin-3(2H)-one], in experiment [1], the pEC50 was 6.70. In experiment [2], this compound gave a pIC50 of 9.44.

Turning to `O=C(CCCNc1cc(C(F)(F)F)c(=O)[nH]n1)N1CCN(c2ccc(C(F)(F)F)cn2)CC1` [Example 53, 3-[[4-oxo-4-[4-[5-(trifluoromethyl)-2-pyridyl]piperazin-1-yl]butyl]amino]-5-(trifluoromethyl)-1H-pyridazin-6-one], the pEC50 in experiment [1] is 6.66. For the same compound, the pIC50 in experiment [2] was 9.47.

As to `O=C([C@H](O)CCNc1cc(C(F)(F)F)c(=O)[nH]n1)N1CCN(c2ncc(C(F)(F)F)cn2)CC1` [Example 26, (R)-6-((3-hydroxy-4-oxo-4-(4-(5-(trifluoromethyl)pyrimidin-2-yl)piperazin-1-yl)butyl)amino)-4-(trifluoromethyl)pyridazin-3(2H)-one], the pEC50 in experiment [1] was 6.05. Besides, the pIC50 in experiment [2] was 8.80.

For `O=C(CCC[C@@H]1CCCc2c1n[nH]c(=O)c2C(F)(F)F)N1CCN(c2ncc(C(F)(F)F)cn2)CC1` (single isomer, unassigned) [Example 76], the pEC50 in experiment [1] is 7.42. Also, in experiment [2], the negative logarithm of the IC50 (pIC50) was 9.65.

As for `O=c1[nH]nc(NCCCS(=O)(=O)N2CCN(c3ncc(C(F)(F)F)cn3)CC2)cc1C(F)(F)F` [Example 21, 4-(trifluoromethyl)-6-((3-((4-(5-(trifluoromethyl)pyrimidin-2-yl)piperazin-1-yl)sulfonyl)propyl)amino)pyridazin-3(2H)-one], the pEC50 in experiment [1] was at most 5.00. The pIC50 in experiment [2] was 7.73.

As to `O=C(CCC[C@H]1CCc2c1n[nH]c(=O)c2C(F)(F)F)N1CCN(c2ncc(C(F)(F)F)cn2)CC1` [Example 79, (S)-7-(4-oxo-4-(4-(5-(trifluoromethyl)pyrimidin-2-yl)piperazin-1-yl)butyl)-4-(trifluoromethyl)-2,5,6,7-tetrahydro-3H-cyclopenta[c]pyridazin-3-one], in experiment [1], the pEC50 is 6.50. In addition, the pIC50 in experiment [2] is 8.57.

For `O=C(CC[C@H]1CCCCN1c1cc(C(F)(F)F)c(=O)[nH]n1)N1CCN(c2ncc(C(F)(F)F)cn2)CC1` [Example 33, (R)-6-(2-(3-oxo-3-(4-(5-(trifluoromethyl)pyrimidin-2-yl)piperazin-1-yl)propyl)piperidin-1-yl)-4-(trifluoromethyl)pyridazin-3(2H)-one], in experiment [1], the pEC50 was 5.91. Moreover, the pIC50 in experiment [2] was 8.54.

In the case of `O=C([C@@H]1CCCCN1c1cc(C(F)(F)F)c(=O)[nH]n1)N1CCN(c2ncc(C(F)(F)F)cn2)CC1` [Example 28, (S)-4-(trifluoromethyl)-6-(2-(4-(5-(trifluoromethyl)pyrimidin-2-yl)piperazine-1-carbonyl)piperidin-1-yl)pyridazin-3(2H)-one], the pEC50 in experiment [1] is 6.58. Besides, in experiment [2], the pIC50 was 9.06.

As to `O=C(OC/C=C/c1cc(C(F)(F)F)c(=O)[nH]n1)N1CCN(c2ncc(C(F)(F)F)cn2)CC1` [Example 14, (E)-3-(6-oxo-5-(trifluoromethyl)-1,6-dihydropyridazin-3-yl)allyl 4-(5-(trifluoromethyl)pyrimidin-2-yl)piperazine-1-carboxylate], in experiment [1], the pEC50 was 6.00. Also, in experiment [2], the pIC50 is 8.91.

For `O=C([C@@H]1C[C@H]1CNc1cc(C(F)(F)F)c(=O)[nH]n1)N1CCN(c2ncc(C(F)(F)F)cn2)CC1` [Example 22, 4-(trifluoromethyl)-6-((((1R,2R)-2-(4-(5-(trifluoromethyl)pyrimidin-2-yl)piperazine-1-carbonyl)cyclopropyl)methyl)amino)pyridazin-3(2H)-one], in experiment [1], the pEC50 was at most 5.00. In addition, in experiment [2], the pIC50 is 8.59.

As to `O=C(CC[C@@H](Nc1cc(C(F)(F)F)c(=O)[nH]n1)C(F)F)N1CCN(c2ncc(C(F)(F)F)cn2)CC1` [Example 40, (R)-6-((1,1-difluoro-5-oxo-5-(4-(5-(trifluoromethyl)pyrimidin-2-yl)piperazin-1-yl)pentan-2-yl)amino)-4-(trifluoromethyl)pyridazin-3(2H)-one], in experiment [1], the pEC50 was 7.20. In addition, the pIC50 in experiment [2] is 9.56.

Take `CC(C)(CCNc1cc(C(F)(F)F)c(=O)[nH]n1)C(=O)N1CCN(c2ncc(C(F)(F)F)cn2)CC1` [Example 71, 3-[[3,3-dimethyl-4-oxo-4-[4-[5-(trifluoromethyl)pyrimidin-2-yl]piperazin-1-yl]butyl]amino]-5-(trifluoromethyl)-1H-pyridazin-6-one]: in experiment [1], the pEC50 is 5.59. The same compound had a pIC50 in experiment [2] of 8.87.

As for `O=C(CCCc1cc(C(F)(F)F)c(=O)[nH]n1)N1CCN(c2ncc(C(F)(F)F)cn2)CC1` [Example 11, 6-(4-oxo-4-(4-(5-(trifluoromethyl)pyrimidin-2-yl)piperazin-1-yl)butyl)-4-(trifluoromethyl)pyridazin-3(2H)-one], the pEC50 in experiment [1] was 5.82. Further, in experiment [2], the pIC50 was 8.33.

Consider `O=C([C@H]1CCC[C@H](Nc2cc(C(F)(F)F)c(=O)[nH]n2)C1)N1CCN(c2ncc(C(F)(F)F)cn2)CC1` [Example 61, 5-(trifluoromethyl)-3-[[(1S,3S)-3-[4-[5-(trifluoromethyl)pyrimidin-2-yl]piperazine-1-carbonyl]cyclohexyl]amino]-1H-pyridazin-6-one], for which the pEC50 in experiment [1] was at most 5.00. Also, in experiment [2], the pIC50 was 8.75.
